*1 amine or outer side, *2 acyl side, *3 side chain or, on linkers, in order; H or OH if unused. Where a SMILES comes first, the peptide text is derived from it. CO = O=C([*:1])[*:2]
The molecules below were run on CC(C)[C@H](NC(=O)[C@H](Cc1ccccc1)NC(=O)CNC(=O)[C@H](Cc1ccccc1)NC(=O)CN)C(=O)NCC(=O)NCC(=O)O (assay: purified protein, by the assay type). Details: other: substrate 0 to 400 μM, 50 nM cathepsin B; 37.0 °C.
For cathepsin B (Homo sapiens), the Km was 270 ± 34 µM.

The molecules below were run against cathepsin B (Homo sapiens, UniProt P07858) (assay: Cathepsin B assay by droplet ESI-MS). Details: 25 μM each.
With `CC(=O)N[C@@H](CC(C)C)C(=O)N[C@@H](CC(C)C)C(=O)N[C@H](C=O)CCCNC(=N)N` [leupeptin, N-acetyl-L-leucyl-L-leucyl-L-argininal] the “result in the 24-compound pilot screen” value was “detected as inhibitors”.
`CC(C)C[C@H](NC(=O)[C@H]1O[C@@H]1C(=O)O)C(=O)NCCCCN=C(N)N` (relative stereo) [E-64, L-trans-3-carboxyoxiran-2-carbonyl-L-leucylagmatine] was tested, and the “result in the 24-compound pilot screen” value was “detected as inhibitors”.
`CC(C)[C@H](NC(=O)[C@H](CCCNC(=N)N)NC(=O)N[C@@H](Cc1ccccc1)C(=O)O)C(=O)N[C@H](C=O)CCCNC(=N)N` [antipain, [(S)-1-carboxy-2-phenylethyl]carbamoyl-L-arginyl-L-valyl-argininal] ({Phe-CO}-Arg-Val-Arg-aldehyde) was tested, and the “result in the 24-compound pilot screen” value was “detected as inhibitors”.
With `CC(C)C[C@H](NC(=O)[C@@H](NC(=O)N[C@@H](Cc1ccccc1)C(=O)O)[C@@H]1CCN=C(N)N1)C(=O)N[C@H](C=O)Cc1ccccc1` [chymostatin, N-(Nα-carbonyl-[S,S]-α-(2-iminohexahydro-4-pyrimidyl)glycine-X-Phe-al)-Phe, X = Leu, Val, or Ile] the “result in the 24-compound pilot screen” value was “detected as inhibitors”.

Same assay, conditions: read-out: reduction of reaction yield in the primary screen
`O=c1cc(-c2ccc(O)c(O)c2)oc2cc(O)cc(O)c12` [Luteolin, luteolin] gave an inhibition at 25 µM of no less than 40%.
`CC(=O)Oc1cccc2c1C(=O)c1c(OC(C)=O)cc(C(=O)O)cc1C2=O` [diacerein] gave an inhibition at 25 µM of no less than 40%.
`CCN(CC)C(=S)SSC(=S)N(CC)CC` [disulfiram] gave an inhibition at 25 µM of no less than 40%.
Molecule `[H]/N=C(\N/C(=N/[H])NCCCCCCNC(=N)NC(=N)Nc1ccc(Cl)cc1)Nc1ccc(Cl)cc1` [Chlorhexidine, chlorhexidine] has an inhibition at 25 µM of no less than 40%.
With `O=C(c1ccc(OCCN2CCCCC2)cc1)c1c(-c2ccc(O)cc2)sc2cc(O)ccc12` [raloxifene] the inhibition at 25 µM was no less than 40%.
`CSc1nc2cc(Cl)c(Oc3cccc(Cl)c3Cl)cc2[nH]1` [Triclabendazole, triclabendazole] was tested, and the inhibition at 25 µM was no less than 40%.
`Oc1cc(Cl)ccc1Oc1ccc(Cl)cc1Cl` [triclosan] was tested, and the inhibition at 25 µM was no less than 40%.
Molecule `O=C1c2c(O)cccc2Cc2cccc(O)c21` [anthralin] has an inhibition at 25 µM of no less than 40%.
Work on `C=C(CC)C(=O)c1ccc(OCC(=O)O)c(Cl)c1Cl` [ethacrynic acid] yielded an inhibition at 25 µM of no less than 40%.
Molecule `Oc1c(Cl)cc(Cl)c(Cl)c1Cc1c(O)c(Cl)cc(Cl)c1Cl` [hexachlorophene] has an inhibition at 25 µM of no less than 40%.

Source: PMC4165461 (Analytical Chemistry, 2014)
